Source: patent US20190365784A1, “USE OF BRASSINOSTEROID ANALOGS FOR THE TREATMENT OF DERMAL DISORDERS BY SELECTIVELY MODULATING LIVER X RECEPTORS (LXR) AND DERMAL DISEASE TREATMENT BY BRASSINOSTEROID ANALOGS ACTING AS SELECTIVE LIVER X RECEPTOR (LXR) MODULATORS” (CONSEJO NACIONAL DE INVESTIGACIONES CIENTÍFICAS Y TÉCNICAS …, priority 2015, published 2019)

What was measured:
LXR-alpha [1] = target: T1, LXR-alpha (Homo sapiens, UniProt Q13133); experiment: LXR-alpha/RXR LRE-luciferase reporter in transfected HEK293T cells; type: cell-based; details: 10 uM, 18 h
T1 sequence (Q13133 1-447): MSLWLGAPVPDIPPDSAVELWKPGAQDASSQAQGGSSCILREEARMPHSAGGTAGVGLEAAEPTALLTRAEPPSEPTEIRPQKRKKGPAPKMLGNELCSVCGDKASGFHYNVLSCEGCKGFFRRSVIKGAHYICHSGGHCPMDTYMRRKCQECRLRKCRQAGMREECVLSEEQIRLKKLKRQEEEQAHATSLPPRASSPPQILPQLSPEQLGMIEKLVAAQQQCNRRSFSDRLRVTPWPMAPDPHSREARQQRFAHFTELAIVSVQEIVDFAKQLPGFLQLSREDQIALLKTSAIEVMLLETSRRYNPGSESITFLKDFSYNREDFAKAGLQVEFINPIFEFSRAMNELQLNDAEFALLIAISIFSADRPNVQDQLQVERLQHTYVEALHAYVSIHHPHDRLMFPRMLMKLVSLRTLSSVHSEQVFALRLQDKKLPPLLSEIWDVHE
T1 sequence (P19793 1-462 partner): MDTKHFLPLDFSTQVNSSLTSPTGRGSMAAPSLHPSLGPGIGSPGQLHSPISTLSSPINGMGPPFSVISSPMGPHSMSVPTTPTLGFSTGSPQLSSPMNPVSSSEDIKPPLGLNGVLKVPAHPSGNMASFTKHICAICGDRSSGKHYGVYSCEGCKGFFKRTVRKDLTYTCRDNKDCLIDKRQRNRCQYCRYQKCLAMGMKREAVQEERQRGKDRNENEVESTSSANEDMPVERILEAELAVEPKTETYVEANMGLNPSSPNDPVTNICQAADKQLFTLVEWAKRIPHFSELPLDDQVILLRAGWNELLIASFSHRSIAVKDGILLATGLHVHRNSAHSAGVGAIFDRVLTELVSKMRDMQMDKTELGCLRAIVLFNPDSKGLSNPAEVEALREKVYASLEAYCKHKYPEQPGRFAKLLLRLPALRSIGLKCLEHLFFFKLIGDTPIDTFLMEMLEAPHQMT
From the text: Since we had previously shown that the beneficial effects of the compounds of the invention are independent of glucocorticoid receptor (GR) activation, we set forth to investigate if they might exert their actions through activation of liver X receptors (LXR). For this purpose we used cultured cells transiently transfected with LXR-alpha, the retinoid X receptor (RXR) and a LXR response element-luciferase reporter (LRE-LUC). A. Human embryonic kidney cells (HEK293T; 5×10^5 cells/well) were cultured in DMEM medium supplemented with 10% (v/v) fetal bovine serum, 100 ug/ml of streptomycin, 100 IU/ml of penicillin and 2 mM glutamine. For the transient transfections, the cell cultures were added with plasmids carrying LXR-alpha (pLXR-alpha; 0.6 ug), the retinoid X receptor (pRXR; 0.2 ug), a LXR response element-luciferase reporter (pRE-LUC; 0.7 ug) and beta-galactosidase gene (pRSV-LacZ; 0.6 ug) as a transfection control, using Lipofectamine 2000 (Invitrogen). […] Compounds III to VI are […] analogs bearing a fluorine atom at C-6. To assess LXR-alpha activation, at the end of the incubation period luciferase activity was measured by use of a luciferase assay system (Promega). The results of three independent assays, carried out in duplicate for each condition, are reported.

ABCG1 = ABCG1 expression in HL-60 cells (real time PCR); type: cell-based, human; details: 10 uM, 6 h
Procedure: To investigate the effects of Compounds I and II on the expression of three genes involved in lipid metabolism [fatty acid synthase (FAS); and two ATP-dependent cholesterol and phospholipid transporters, such as ABCA1 and ABCG1], human promyelocytic leukemia cells (HL-60) that endogenously express LXR-alpha and LXR-beta were incubated in the presence of either Comp I or Comp II (10 uM), or GW3965 (1 uM) for 6 h. mRNA levels for FAS, ABCA1 and ABCG1 were determined by real time PCR and results were normalized to GAPDH expression. HL-60 (10^6 cells/well) were cultured in RPMI medium supplemented with 5% (v/v) fetal bovine serum, penicillin (100 IU/mL), streptomycin (100 ug/mL) y cyprofloxacin (0.4 ug/mL). […] To obtain RNA, at the end of the incubation the cells were collected by centrifugation at 1,000 rpm for 2 min, washed with phosphate buffered saline, and lysed in 300 ul TRIZOL (Invitrogen). RNA samples were suspended in […] of RNAse free water, and their concentration determined (NanoDrop spectrophotometer). […] To obtain cDNA, 1 ug of total RNA was denatured by incubating for 5 min at 70° C., before the addition of a mixture containing 0.5 ug oligo-dT primers and 25 ng/ml of random primers (Invitrogen), 1.0 mM dNTPs (Invitrogen), and 200 U M-MLV reverse transcriptase (Promega); after this the mixture was retrotranscribed at 37° C. for 60 min, followed by an incubation at 95° C. for 5 min to inactivate the enzyme. For the real time PCR amplification (Stratagene Thermal Cycler), cDNA samples were diluted 1/5 to 1/10 depending on the target amplification product. Calibration curves were obtained by use of eight successive 1:2 sample dilutions. Amplifications were carried out in a 25 ul final volume (5 ul cDNA sample plus 20 ul of reaction mixture) in the presence of either 3, 4 or 5 mM MgCl2 (depending on the amplified sequence), 0.25 mM dNTPs (Invitrogen), 1.25 U Taq polymerase (Invitrogen), 1 μM of the specific primers according to the target amplification sequence, and 0.025 μl SYBR Green (Roche). […]

LXR-alpha [2] = experiment: LXR-alpha expression in UV-irradiated HaCaT cells (real time PCR); type: cell-based, human; details: 10 uM, 24 h after UV, vs. DMSO (UV, 24 h) and GW3965 (UV, 24 h)
Procedure: (§1) HaCaT cells—a human immortalized keratinocyte cell line—were exposed to 15 J/m^2 UVB (254 nm) irradiation. Twenty four hours after irradiation, the cells were harvested and RNA isolated to assess the expression of LXR-alpha, LXR-beta, ABCA1, TNF-alpha, IL-6, and IL-8 genes. HaCaT cells were cultured in DMEM supplemented with 10% (v/v) fetal bovine serum, penicillin (100 U/mL), streptomycin ([…]) and glutamine (2 mM). […] The expressions of ABCA1, TNF-alpha, IL-6, IL-8, LXR-alpha, and LXR-beta were normalized according to glyceraldehyde-3-phosphate dehydrogenase (GAPDH) expression. The results of three independent assays, carried out in duplicate for each condition, are reported.

ABCA1 = ABCA1 expression in HepG2 cells (real time PCR); type: cell-based, human; details: 1 uM, 3 uM and 10 uM, 6 h
TNF-alpha = TNF-alpha expression in UV-irradiated HaCaT cells (real time PCR); type: cell-based, human; details: 10 uM, 24 h after UV (254 nm, 15 J/m^2), normalized to GAPDH
Procedure: as §1

SRBEP-1 = SRBEP-1 expression in HepG2 cells (real time PCR); type: cell-based, human; details: 1 uM, 3 uM and 10 uM, 6 h
Procedure: The cells were incubated for 6 h in the presence of either Compound I (10 uM), or Compound II (10 uM), or the commercial LXR agonist GW3965 (1 uM), or Vehicle [DMSO, 0.1% (v/v)]). To obtain RNA, at the end of the incubation the cells were collected by centrifugation at 1,000 rpm for 2 min, washed with phosphate buffered saline, and lysed in 300 ul TRIZOL (Invitrogen). RNA samples were suspended in ul of RNAse free water, and their concentration determined (NanoDrop spectrophotometer). The ratio of the absorbance at 260 and 280 nm was used to assess RNA purity of an RNA preparation, with a value of 1.8-2.0 indicating pure RNA. To obtain cDNA, 1 ug of total RNA was denatured by incubating for 5 min at 70° C., before the addition of a mixture containing 0.5 ug oligo-dT primers and 25 ng/ml of random primers (Invitrogen), 1.0 mM dNTPs (Invitrogen), and 200 U M-MLV reverse transcriptase (Promega); after this the mixture was retrotranscribed at 37° C. for 60 min, followed by an incubation at 95° C. for 5 min to inactivate the enzyme. For the real time PCR amplification (Stratagene Thermal Cycler), cDNA samples were diluted 1/5 to 1/10 depending on the target amplification product. Calibration curves were obtained by use of eight successive 1:2 sample dilutions. Amplifications were carried out in a 25 ul final volume (5 ul cDNA sample plus 20 ul of reaction mixture) in the presence of either 3, 4 or 5 mM MgCl2 (depending on the amplified sequence), 0.25 mM dNTPs (Invitrogen), 1.25 U Taq polymerase (Invitrogen), 1 μM of the specific primers according to the target amplification sequence, and 0.025 μl SYBR Green (Roche). Melting curves were used to assess the specificity of the amplification products. […]

SMILES | induction of LXR-alpha driven gene expression compared with GW3965 (1 uM) (LXR-alpha [1]) | effect on ABCG1 expression (ABCG1) | LXR-alpha expression (LXR-alpha [2]) | induction of ABCA1 expression (ABCA1) | TNF-alpha expression versus DMSO-treated cells (TNF-alpha) | induction of SRBEP-1 expression (SRBEP-1)
CC[C@@H](C(C)C)[C@H](O)[C@@H](O)[C@@H](C)[C@H]1CC[C@H]2[C@@H]3CCC4=CC(=O)CC[C@]4(C)[C@H]3CC[C@]12C [Compound I, (22S,23S)-22,23-dihydroxystigmast-4-en-3-one] | within the same range as that observed for GW3965 | none of the test compounds significantly affected | stimulated LXR-alpha expression even further | did not induce | significantly lower | did not induce
CC[C@@H](C(C)C)[C@H](O)[C@@H](O)[C@@H](C)[C@H]1CC[C@H]2[C@@H]3CCC4=CC(=O)C=C[C@]4(C)[C@H]3CC[C@]12C [Compound II, (22S,23S)-22,23-dihydroxystigmasta-1,4-dien-3-one] | within the same range as that observed for GW3965 | none of the test compounds significantly affected | stimulated LXR-alpha expression even further | did not induce | significantly lower | did not induce
